{"source": "patent US20260248863A1", "about": "“METHODS AND MATERIALS FOR TREATING GASTROINTESTINAL DISORDERS” (Mayo Foundation for Medical Education and Research, priority 2020, published 2026)", "key": {"Caco-2 monolayers [1]": {"tested_on": "Caco-2 monolayers", "assay": "Transepithelial resistance (TER) drop induced by high PA fecal supernatants on Caco-2 monolayers", "assay_type": "cell-based", "experimental": "(§1) Apical addition of high PA fecal supernatants on Caco-2 monolayers caused a drop in transepithelial resistance (TER) which was not seen with low PA supernatant (FIG. 16A). […] Since pancreatic elastases were found as the most abundant proteases driving the fecal PA, their effects on barrier were tested."}, "Caco-2 monolayers [2]": {"tested_on": "Caco-2 monolayers", "assay": "Texas red dextran flux across Caco-2 monolayers", "assay_type": "cell-based", "experimental": "as §1"}}}
{"compound": "CC(C)CC(=O)N1CCN(C(=O)CCCCCN)CC1", "note": "[ENMD1068]", "values": [{"measurement": "effect of high PA fecal supernatant on TER (in words)", "setting": "Caco-2 monolayers [1]; FIG. 18, n=5/group, p<0.05", "value": "blocks"}, {"measurement": "inhibition of TER drop induced by high PA fecal supernatants", "setting": "Caco-2 monolayers [1]; preincubation of Caco-2 monolayer, 150 μM", "value": 45, "unit": "%"}]}
{"compound": "CC(C)C[C@H](NC(=O)[C@H]1O[C@@H]1C(=O)O)C(=O)NCCCCN=C(N)N", "note": "[E64]", "values": [{"measurement": "reduction of increased paracellular (Texas red dextran) flux caused by high PA supernatants", "setting": "Caco-2 monolayers [2]; apical preincubation, 0.1 mM E64, Caco-2 monolayers, FIG. 17B", "value": "not"}, {"measurement": "inhibition of fecal supernatant induced TER drop", "setting": "Caco-2 monolayers [1]; apical preincubation, 0.1 mM E64, Caco-2 monolayers, FIG. 17A", "value": "not"}]}
{"compound": "porcine pancreatic elastase: porcine pancreatic elastase, protease tested for effects on barrier", "values": [{"measurement": "Texas red dextran flux, 24 hour basolateral concentration", "setting": "Caco-2 monolayers [2]; 1 mM, Caco-2 monolayers, control 0.1 μg/mL, n=4/group, p<0.05", "value": 5.9, "unit": "µg/mL"}]}
{"compound": "Trypsin", "values": [{"measurement": "effect on barrier", "setting": "Caco-2 monolayers [2]", "value": "had an effect on barrier"}]}
